According to patent US20230295088A1, “INSULIN SENSITIZERS FOR THE TREATMENT OF DIABETES MELLITUS” (University of Iowa Research Foundation, priority 2020, published 2023):
Entries after “also recorded” stand apart in the source; their conditions may differ.

Columns and labels:
[1] = system: GLUT4 translocation in C2C12 myoblast cell line stably expressing HiBiT-GLUT4 (HBG4); test: HiBiT (NanoBit) luminescence GLUT4 translocation assay in HBG4 C2C12 cells; type: cell-based, mouse
Text: An assay was used to identify potentiators of insulin-stimulated GLUT4 translocation. In one embodiment, the assay employs Nanobit technology. This technology is based on the recombination of two complementary fragments, HiBiT and LgBiT, of the Nanoluc luciferase. HiBit was fused to an extracellular region of GLUT4 to allow for the rapid quantitation of its the surface density in live cells by adding the reconibinantly produced complementary fragment LgBiT and the luciferase substrate. Since LgBiT is not membrane permeant, only proteins at the plasma membrane are quantified. To measure GLUT4 translocation, a stable C2C12 myoblast cell line was prepared by expressing a HiBiT-tagged mouse GLUT4. […] The Chembridge Diverset library of 49,600 compounds was screened and 1264 hits were identified. A subset of those hits were selected and retested in the presence and absence of insulin.
Development of a HTS assay for real-time measurement of GLUT4 translocation. To measure GLUT4 translocation in a homogenous and HIS amenable manner, NanoBit technology was used. This technology relies on the rapid recombination of 2 fragments of the Nanoluc luciferase (HiBit and LgBiT) with high affinity for each other. Fragments have no enzymatic activity on their own but generate a bright luminescent signal when recombined. A C2C12 myoblast cell line was prepared that stably expressed HiBiT-GLUT4 (HBG4), in which the small 11 amino acid HiBiT fragment was inserted into the first extracellular loop of GLUT4. A C-terminal mCherry was also added for microscopic detection. The C2C12 line was chosen as an in vitro model because it is derived from skeletal myoblasts and translocate GLUT4 in response to insulin. Detection of plasma membrane density of HBG4 is achieved by adding recombinant LgBit and substrate to live cells. The assay can be conducted as an endpoint where cells are incubated with insulin before measuring luminescence or as a kinetic assay by adding LgBiT and substrate at the beginning of the experiment and monitor real-time insulin-stimulated GLUT4 translocation.
An assay to measure GLUT4 translocation in a homogenous and HIS amenable manner using NanoBit technology was developed. This technology relies on the rapid recombination of 2 fragments of the Nanoiuc luciferase (HiBit and LgBiT) with high affinity for each other. Fragments have no enzymatic activity on their own but generate a bright luminescent signal when recombined. A C2C12 myoblast cell line stably expressing HiBiT-GLUT4 (HBG4), in which the small 11 amino acid HiBiT fragment was inserted into the first extracellular loop of GLUT4 was prepared. A C-terminal mCherry was also added for microscopic detection (FIGS. 1A and B). The C2C12 line was chosen as an in-vitro model because it is derived from skeletal myoblasts and translocates GLUT4 in response to insulin. Detection of plasma membrane density of HBG4 is achieved by adding recombinant LgBit and substrate to live cells (FIG. 1C). The assay can be conducted as a kinetic assay by adding LgBiT and substrate at the beginning of the experiment and monitoring real-time insulin-stimulated GLUT4 translocation (FIGS. 1D and E).

[2] = Solubility in aqueous solution; type: physicochemical; settings: compared with C3
[3] = system: lean mice; test: Glucose tolerance test in lean mice; type: in vivo, mouse; settings: single injection before GTT
Description: C3 improves glucose tolerance in lean and obese insulin resistant mice. To test whether C3 improves glucose handling, lean mice were injected with vehicle or C3 30 minutes before performing a glucose tolerance test. […] To further determine if C3 can reverse glucose intolerance, WT mice were made insulin-resistant by feeding them a high fat diet (HFD) for a period of 10 weeks. Diet induced obese (DIO) mice were then injected with vehicle or C3 for 2 weeks while remaining on HFD. […] Together those results establish in vivo efficacy of C3 for the treatment of insulin resistance.

[4] = molecular target: T1, Unc119 (Mus musculus, UniProt Q9Z2R6); test: Proteome Integral Solubility Alteration (PISA) assay, Unc119; type: binding; parameters: dose or concentration left out as unconfirmed
T1 construct: endogenous in cells
Text: Identification of the molecular target of C59. Since the discovery of C59 as an insulin sensitizer was achieved using a phenotypic screen, the molecular target of the compound was unknown. To identify the target, a Proteome Integral Solubility Alteration (PISA) assay was used. […] To measure the shift in thermal stability, constructs coding for Unc119-HiBiT and Unc119b-HiBit were generated, thus allowing the quantitative detection of those proteins by adding LgBiT and furimazin to the lysates and measuring luminescence. Crude extract from cells transfected with Unc119-HiBiT or Unc119b-HiBiT, were incubated with DMSO or C59 for 10 minutes, aliquoted, heated for 3 minutes at the indicated temperature and allowed to cool down to room temperature before adding LgBiT and furimazin and reading luminescence on a plate reader.

[5] = system: GLUT4 translocation in HBG4 mice; test: In vivo GLUT4 translocation in HBG4 mice (IVIS luminescence); parameters: species or system mouse; settings: DIO HBG4 mice treated for 2 weeks, insulin 10 minutes before substrate
Description: C3 potentiates insulin action in primary adipocytes and in live mice. Using HBG4 mice, insulin stimulated GLUT4 translocation of endogenous GLUT4 was measured in primary skeletal muscle fibers and primary adipocytes. Enhancement of insulin-stimulated translocation of endogenous GLUT4 was also shown in primary adipocytes in the presence of C3. In parallel dishes, increased insulin-stimulated glucose uptake in HBG4 primary adipocyte treated with C3 was found. […] To determine if the HBG4 mouse can be used to measure GLUT4 translocation in vivo, HBG4 mice were pretreated with daily IP injections of vehicle or 50 mg/Kg C3 for 3 days. On the day of the experiment, mice were injected with vehicle or insulin IP followed by a subcutaneous injection of LgBiT and substrate around the leg muscles. Mice were then anesthetized and placed into an IVIS system to measure luminescence. […] Baseline signal was detected in vehicle and C3 treated HBG4 mice. […]
DIO HBG4 mice were treated with vehicle or C59 for 2 weeks and injected i.v. with an adenovirus coding for a secreted form of LgBiT (allowing LgBiT production and secretion predominantly by the liver into the circulation) 2 days prior to the experiment. Animal were then injected with saline or insulin 10 minutes before i.v. injection of substrate and luminescence imaging using an IVIS system.

EC50 ([1]; Mus musculus, HBG4 C2C12 cells, with insulin, read-out: potency (enhancement of insulin effect on GLUT4 translocation)): 2500 nM
solubility in aqueous solution [2]: improved solubility
thermostability of Unc119 (PISA) ([4]; lysates (crude extract)): increased the thermostability
SMILES: O=C(Nc1ccc(Cl)c(Cl)c1)C12CC3CC(CC(C3)C1)C2 [Compound C59]
efficacy compared with C3 ([1]; enhancement of insulin effect on GLUT4 translocation): higher; also recorded: improved efficacy
insulin-stimulated GLUT4 translocation ([1]; in the presence of insulin, WT HBG4 C2C12 cells): enhanced; also recorded: retained activity; also recorded: increased
glucose clearance in glucose tolerance test [3]: improvement
thermostability of Unc119 (PISA) ([4]; live cells, vs DMSO and C29): increased the thermostability; also recorded: concentration dependent increased thermostability
insulin-stimulated GLUT4 translocation in vivo [5]: very significantly improved
